# Experimental data taken from patent publication US10123998B2, “Kinase modulation, and indications therefor” (Plexxikon Inc., priority 2012, dated 2018).
# pIC50: −log10 of the molar value.
# System: Osteoclast precursor cells
# Assay: Osteoclast differentiation assay
# Format: cell-based
# Protocol: Further, an osteoclast differentiation assay is used to assess the efficacy of Fms inhibitors for treating bone disease such as osteoarthritis. On day 0, Osteoclast Medium BulletKit (Lonza catalog # PT-8001, containing Media, FBS, L-Glutamine, PenStrep, RANKL, and M-CSF) media is thawed and the FBS, L-glutamine and PenStrep from the kit is added to 100 mL of Osteoclast Precursor Basal medium to provide the Osteoclast Precursor Growth Medium (OPGM). This is warmed to 37° C. Osteoclast precursor cells (Lonza catalog #2T-110) frozen in cryovial are warmed to 37° C. and transferred to a 50 mL conical tube. The cryovial is rinsed with OPGM and added dropwise to the conical tube of cells with swirling, then the volume is adjusted to 20-30 mL with addition of OPGM. The cells are centrifuged at 200×g for 15 minutes at room temperature and all but approximately 3 mL of supernatant is removed to a new conical tube. The cells are suspended in the remaining supernatant and the volume is adjusted to 10-15 mL with OPGM added dropwise with swirling. The cells are centrifuged at 200×g for 15 minutes at room temperature and all but approximately 1 mL of supernatant is removed. The cells are resuspended in the remaining supernatant, counted, and the volume adjusted with an appropriate amount of OPGM to provide approximately 1×10^5 cells/mL. A 0.1 mL aliquot of cells is added to each well of a 96-well plate. Compound to be tested is prepared in DMSO for plating at a high concentration of 2.5 mM, with 8 point 1:3 serial dilutions. A 1 μL aliquot of each compound dilution is added to a 96 well v-bottom polypropylene plate and 0.124 mL of OPGM is added to the compound. Then 50 μL of the compound in OPGM is added to the osteoclast precursor cells in 96-well plate (providing highest test concentration of 5 μM). RANKL (2 μg) from the BulletKit is reconstituted in 1 mL of OPGM, then vortexed and centrifuged briefly. A 792 μL aliquot of RANKL is added to 6 mL of OPGM and 50 μL is added to low control wells. Then 76.6 μL M-CSF ([…]) from the BulletKit is added to the remaining 5.8 mL of OPGM/RANKL solution (4×RANKL/M-CSF/OPGM). A 50 μL aliquot of this is added to the remaining wells, and the remainder is stored at 4° C. for later use. The plate is incubated at 37° C. for 6 days, then the remaining OPGM/RANKL/M-CSF solution is warmed to 37° C. The remaining approximately 198 μL is combined with 6 mL of OPGM. The media is aspirated from the osteoclast wells and 100 μL of RANKL/OPGM is added to the low controls. The remaining RANKL/OPGM is combined with the approximately 18.5 μL of remaining M-CSF. The remaining 4×RANKL/M-CSF/OPGM from day 0 is diluted to 1× and combined with the freshly prepared solution. A 0.1 mL aliquot of this is added to each osteoclast well and incubated for 37° C. for 1 day. The Acid Phosphatase kit (Cayman Chemical catalog #10008051) is warmed to room temperature. The assay buffer is diluted 5 mL with 45 mL of water. For each plate, two substrate tablets are dissolved in 4.5 mL of the assay buffer, mixing by vortex to break up the tablet. Stop solution is diluted 12 mL with 36 mL of water. In a tissue culture hood, 20 μL of each osteoclast well supernatant is transferred to a 96 well plate. A 30 μL aliquot of the substrate solution is added to each well and incubated at 37° C. for 20 minutes, then added […] stop solution to each well. The absorbance of each well is read at 405 nm on Safire plate reader. The absorbance reading is plotted vs. concentration to provide the IC50 for each compound.
row,SMILES,pIC50
1,"COc1ccc(CNc2ncc(Cc3c[nH]c4ncc(C)cc34)cc2C)cn1 [Compound P-1554, (6-Methoxy-pyridin-3-ylmethyl)-[3-methyl-5-(5-methyl-1H-pyrrolo[2,3-b]pyridin-3-ylmethyl)-pyridin-2-yl]-amine]",> 7.00
2,"Fc1cncc(CNc2ccc(Cc3c[nH]c4ncc(Cl)cc34)c(F)n2)c1 [Compound P-2001, [5-(5-Chloro-1H-pyrrolo[2,3-b]pyridin-3-ylmethyl)-6-fluoro-pyridin-2-yl]-(5-fluoro-pyridin-3-ylmethyl)-amine]",> 7.00
3,"Clc1cnc2[nH]cc(Cc3ccc(NCc4ccc(Cl)nc4)nc3)c2c1 [Compound P-2003, (6-Chloro-pyridin-3-ylmethyl)-[5-(5-chloro-1H-pyrrolo[2,3-b]pyridin-3-ylmethyl)-pyridin-2-yl]-amine]",> 7.00
4,"Fc1ccc(CNc2ccc(Cc3c[nH]c4ncc(Cl)cc34)cn2)cn1 [Compound P-2004, [5-(5-Chloro-1H-pyrrolo[2,3-b]pyridin-3-ylmethyl)-pyridin-2-yl]-(6-fluoro-pyridin-3-ylmethyl)-amine]",> 7.00
5,"Cc1cnc2[nH]cc(Cc3ccc(NCc4ccc(C(F)(F)F)nc4)nc3)c2c1 [Compound P-2019, [5-(5-Methyl-1H-pyrrolo[2,3-b]pyridin-3-ylmethyl)-pyridin-2-yl]-(6-trifluoromethyl-pyridin-3-ylmethyl)-amine]",> 7.00
6,"COc1cnc2[nH]cc(Cc3ccc(NCc4cncc(F)c4)nc3F)c2c1 [Compound P-2028, [6-Fluoro-5-(5-methoxy-1H-pyrrolo[2,3-b]pyridin-3-ylmethyl)-pyridin-2-yl]-(5-fluoro-pyridin-3-ylmethyl)-amine]",> 7.00
7,"COc1ccc(CNc2ccc(Cc3c[nH]c4ncc(C)cc34)c(F)n2)cn1 [Compound P-2029, [6-Fluoro-5-(5-methyl-1H-pyrrolo[2,3-b]pyridin-3-ylmethyl)-pyridin-2-yl]-(6-methoxy-pyridin-3-ylmethyl)-amine]",> 7.00
8,"COc1cnc2[nH]cc(Cc3ccc(NCc4ccc(OC)nc4)nc3F)c2c1 [Compound P-2030, [6-Fluoro-5-(5-methoxy-1H-pyrrolo[2,3-b]pyridin-3-ylmethyl)-pyridin-2-yl]-(6-methoxy-pyridin-3-ylmethyl)-amine]",> 7.00
9,"Cc1cnc2[nH]cc(Cc3ccc(NCc4ccc(C(F)(F)F)nc4)nc3F)c2c1 [Compound P-2031, [6-Fluoro-5-(5-methyl-1H-pyrrolo[2,3-b]pyridin-3-ylmethyl)-pyridin-2-yl]-(6-trifluoromethyl-pyridin-3-ylmethyl)-amine]",> 7.00
10,"COc1cnc2[nH]cc(Cc3ccc(NCc4ccc(Cl)cc4)nc3F)c2c1 [Compound P-2032, (4-Chloro-benzyl)-[6-fluoro-5-(5-methoxy-1H-pyrrolo[2,3-b]pyridin-3-ylmethyl)-pyridin-2-yl]-amine]",> 7.00
11,"COc1ccnc2[nH]cc(Cc3ccc(NCc4ccc(Cl)cc4)nc3F)c12 [Compound P-2037, (4-Chloro-benzyl)-[6-fluoro-5-(4-methoxy-1H-pyrrolo[2,3-b]pyridin-3-ylmethyl)-pyridin-2-yl]-amine]",> 7.00
12,"COc1ccc(CNc2ncc(Cc3c[nH]c4ncc(Cl)cc34)cn2)cn1 [Compound P-2038, [5-(5-Chloro-1H-pyrrolo[2,3-b]pyridin-3-ylmethyl)-pyrimidin-2-yl]-(6-methoxy-pyridin-3-ylmethyl)-amine]",> 7.00
13,"COc1ncccc1CNc1ccc(Cc2c[nH]c3ncccc23)c(F)n1 [Compound P-2045, [6-Fluoro-5-(1H-pyrrolo[2,3-b]pyridin-3-ylmethyl)-pyridin-2-yl]-(2-methoxy-pyridin-3-ylmethyl)-amine]",> 7.00
14,"COc1ncc(CNc2ccc(Cc3c[nH]c4ncc(C)cc34)c(F)n2)cc1F [Compound P-2048, (5-Fluoro-6-methoxy-pyridin-3-ylmethyl)-[6-fluoro-5-(5-methyl-1H-pyrrolo[2,3-b]pyridin-3-ylmethyl)-pyridin-2-yl]-amine]",> 7.00
15,"COc1ncc(F)cc1CNc1ccc(Cc2c[nH]c3ncc(C)cc23)c(F)n1 [Compound P-2049, (5-Fluoro-2-methoxy-pyridin-3-ylmethyl)-[6-fluoro-5-(5-methyl-1H-pyrrolo[2,3-b]pyridin-3-ylmethyl)-pyridin-2-yl]-amine]",> 7.00
16,"COc1ncccc1CNc1ccc(Cc2c[nH]c3ncc(C)cc23)c(F)n1 [Compound P-2052, [6-Fluoro-5-(5-methyl-1H-pyrrolo[2,3-b]pyridin-3-ylmethyl)-pyridin-2-yl]-(2-methoxy-pyridin-3-ylmethyl)-amine]",> 7.00
17,"COc1ccc(CNc2ncc(Cc3c[nH]c4ncc(C)cc34)cn2)cn1 [Compound P-2057, (6-Methoxy-pyridin-3-ylmethyl)-[5-(5-methyl-1H-pyrrolo[2,3-b]pyridin-3-ylmethyl)-pyrimidin-2-yl]-amine]",> 7.00
18,"COc1ncc(F)cc1CNc1ncc(Cc2c[nH]c3ncc(C)cc23)cn1 [Compound P-2061, (5-Fluoro-2-methoxy-pyridin-3-ylmethyl)-[5-(5-methyl-1H-pyrrolo[2,3-b]pyridin-3-ylmethyl)-pyrimidin-2-yl]-amine]",> 7.00
19,"FC(F)(F)c1ccncc1CNc1ccc(Cc2c[nH]c3ncc(Cl)cc23)cn1 [Compound P-2063, [5-(5-Chloro-1H-pyrrolo[2,3-b]pyridin-3-ylmethyl)-pyridin-2-yl]-(4-trifluoromethyl-pyridin-3-ylmethyl)-amine]",> 7.00
20,"COc1ncc(F)cc1CNc1ncc(Cc2c[nH]c3ncc(Cl)cc23)cn1 [Compound P-2064, [5-(5-Chloro-1H-pyrrolo[2,3-b]pyridin-3-ylmethyl)-pyrimidin-2-yl]-(5-fluoro-2-methoxy-pyridin-3-ylmethyl)-amine]",> 7.00
21,"Cc1cnc2[nH]cc(Cc3ccc(NCc4cnccc4C(F)(F)F)nc3)c2c1 [Compound P-2070, [5-(5-Methyl-1H-pyrrolo[2,3-b]pyridin-3-ylmethyl)-pyridin-2-yl]-(4-trifluoromethyl-pyridin-3-ylmethyl)-amine]",> 7.00
22,"Cc1cnc2[nH]cc(Cc3cnc(NCc4ccc(C(F)(F)F)nc4)c(F)c3)c2c1 [Compound P-2146, [3-Fluoro-5-(5-methyl-1H-pyrrolo[2,3-b]pyridin-3-ylmethyl)-pyridin-2-yl]-(6-trifluoromethyl-pyridin-3-ylmethyl)-amine]",> 7.00
23,"COc1cnc2[nH]cc(Cc3cnc(NCc4ccc(C(F)(F)F)nc4)c(F)c3)c2c1 [Compound P-2147, [3-Fluoro-5-(5-methoxy-1H-pyrrolo[2,3-b]pyridin-3-ylmethyl)-pyridin-2-yl]-(6-trifluoromethyl-pyridin-3-ylmethyl)-amine]",> 7.00
24,"Cn1cc(F)cc(CNc2ncc(Cc3c[nH]c4ncc(Cl)cc34)cn2)c1=O [Compound P-2157, 3-{[5-(5-Chloro-1H-pyrrolo[2,3-b]pyridin-3-ylmethyl)-pyrimidin-2-ylamino]-methyl}-5-fluoro-1-methyl-1H-pyridin-2-one]",> 7.00
25,"COc1ncc(CNc2ccc(Cc3c[nH]c4ncc(Cl)cc34)c(F)n2)cc1F [Compound P-2165, [5-(5-Chloro-1H-pyrrolo[2,3-b]pyridin-3-ylmethyl)-6-fluoro-pyridin-2-yl]-(5-fluoro-6-methoxy-pyridin-3-ylmethyl)-amine]",> 7.00
26,"Fc1cncc(CNc2ncc(Cc3c[nH]c4ncc(Cl)cc34)cn2)c1 [Compound P-2176, [5-(5-Chloro-1H-pyrrolo[2,3-b]pyridin-3-ylmethyl)-pyrimidin-2-yl]-(5-fluoro-pyridin-3-ylmethyl)-amine]",> 7.00
